Measurements reported in US20030139332A1, “Use of matrix metalloproteinase inhibitors to mitigate nerve damage” (The Regents of the University of California, priority 2001, published 2003).
Entries after “also recorded” stand apart in the source; their conditions may differ.

What was measured:
[1] = test system: MMP-9 and other gelatinases; test: Gelatin zymography of injured spinal cord extracts with metalloproteinase inhibitor control; format: biochemical, mouse; conditions: substrate gels incubated with 4 mM 1,10-phenanthroline
Description: Samples of spinal cord, prepared from the epicenter, were quick-frozen at −80° C. Each sample was weighed and homogenized in (1:4 weight to volume) in lysis buffer containing 50 mM Tris-HCl (pH 8.0), 150 mM NaCl, 1% NP-40, 0.5% deoxycholate, 0.1% SDS. Soluble and insoluble extracts were separated by centrifugation and stored at −20° C. Equal amounts of the supernatant were analyzed by gel zymography as previously described (Herron et al., 1986) on 10% SDS-polyacrylamide gels, copolymerized with substrate (1 mg/ml gelatin). The proteins were renatured by incubation in 2.5% Triton-X100, and then incubated in substrate buffer (50 mM Tris-HCl, […]) for 24 to 36 hours at 37° C. to enable the MMP-9 and other gelatinases to cleave the gelatin. After rinsing in water, each gel was stained with Coomassie Blue for 4 hours and destained in 50% methanol. Negative staining is indicative of the location of active protease bands. After exposure to SDS during gel separation, proenzymes, present in tissue extracts, are activated without proteolytic cleavage. To inhibit MMP proteolytic activities, substrate gels were incubated in substrate buffer with 4 mM 1,10-phenanthroline (Sigma, St. Louis, Mo.), as described (Adler et al. 1990) Development 110:211-220). This control ensured that the measured activity corresponded to matrix metalloproteinase activity. […]

[2] = test system: blood-spinal cord barrier; test: Blood-spinal cord barrier permeability to horseradish peroxidase (HRP) after contusive spinal cord injury; format: in vivo, mouse; conditions: 24 hours post injury, GM 6001 100 mg/kg i.p. from 3 hours post injury, compared to wild type; for blood-spinal cord barrier permeability to HRP at the lesion epicenter: wild type mice, every 12 hours
Description: (§1) Adult, male mice (4-6 months of age), were anesthetized with 2.5% Avertin (0.02 ml/g bw, i.p.) and maintained at 37° C. throughout the experiment by using a warming blanket placed under the animal. […] Briefly, using aseptic techniques the spinous process and laminae of T8 were removed and a circular region of dura, approximately 2.4 mm in diameter, was exposed. After stabilization of the vertebral column, a 2 gm weight was dropped 5.0 cm onto the exposed dura. After injury, the overlying skin was closed with wound clips. Postoperative care included manual expression of each animal's bladder until recovery of reflex emptying.
(§2) Wild type mice were subjected to spinal cord injury as described in the previous section. […] Animals were treated every 12 hours (100 mg/kg in 4% methylcellulose, i.p.), for the first 3 days post injury.

[3] = test system: blood-spinal cord barrier; test: Blood-spinal cord barrier permeability to luciferase after spinal cord injury; format: in vivo, mouse; conditions: 24 hours post injury, GM6001 begun at 3 hours after injury, N=6, vs vehicle N=4, P=0.04
Description: as §1, §2

neutrophils = test: Neutrophil infiltration into the lesion (chloroacetate esterase stain) after spinal cord injury; format: in vivo, mouse; conditions: 24 hours post injury; GM6001 N=4 vs vehicle N=4; P=0.01
Description: Adult, male mice (4-6 months of age), were anesthetized with 2.5% Avertin (0.02 ml/g bw, i.p.) and maintained at 37° C. throughout the experiment by using a warming blanket placed under the animal. A contusive injury was performed based upon modifications of procedures originally described by Kuhn and Wrathall (1998) J. Neurotrauma 15:125-140. Briefly, using aseptic techniques the spinous process and laminae of T8 were removed and a circular region of dura, approximately 2.4 mm in diameter, was exposed. After stabilization of the vertebral column, a 2 gm weight was dropped 5.0 cm onto the exposed dura. After injury, the overlying skin was closed with wound clips. Postoperative care included manual expression of each animal's bladder until recovery of reflex emptying. […]
The protocol was as described by the manufacturer with several exceptions. […] The number of neutrophils within each of these sections was determined from digital images, captured with a CCD camera, as described in the preceding paragraph at 40×magnification. […] Only darkly stained structures, greater than 38 μm^2 (7 μm in diameter) were counted. For the rostral and caudal sections, the numbers of neutrophils within the entire cross sections were determined and summed. For the epicenter, neutrophils were quantified within specific regions of the cross section. […]

spinal cord injured mice = test: Locomotor recovery after spinal cord injury, open field BBB Locomotor Rating Scale; format: in vivo, mouse; conditions: over 6 weeks post injury, GM6001 N=9 vs vehicle N=4, treatment 3 hours to 3 days post injury
Description: as §1, §2
This scale assesses 10 distinct categories that range from limb movement to tail position and involve detailed observations of joint movement, stepping, and coordination. […] Spinal cord injured animals were tested on days 1 and 3 post injury and weekly thereafter for 6 weeks. […] Positioning of the limbs and locomotion was then observed by either directly or indirectly (via the mirror) viewing the animal.

spinal cord white matter = test: Area of residual white matter at the lesion epicenter (Luxol fast blue); format: in vivo, mouse; conditions: 42 days post injury, GM6001 vs vehicle, P=0.01
Description: Adult, male mice (4-6 months of age), were anesthetized with 2.5% Avertin (0.02 ml/g bw, i.p.) and maintained at 37° C. throughout the experiment by using a warming blanket placed under the animal. A contusive injury was performed based upon modifications of procedures originally described by Kuhn and Wrathall (1998) J. Neurotrauma 15:125-140. Briefly, using aseptic techniques the spinous process and laminae of T8 were removed and a circular region of dura, approximately 2.4 mm in diameter, was exposed. After stabilization of the vertebral column, a 2 gm weight was dropped 5.0 cm onto the exposed dura. After injury, the overlying skin was closed with wound clips. Postoperative care included manual expression of each animal's bladder until recovery of reflex emptying.
Wild type mice were subjected to spinal cord injury as described in the previous section. All mice were treated with either GM 6001 (AMS Scientific, Inc., Concord, Calif. 100 mg/kg in 4% methylcellulose, i.p.), a general inhibitor of MMPs, or vehicle (4% methylcellulose, i.p.), at 3 hours post injury. […]
The area of residual white matter at the epicenter was determined in vehicle-and drug-treated wild type mice at 42 days post injury. […] These sections were captured with a Spotcam camera mounted on a Nikon Optiphot and analyzed using Photoshop 6.0™. […] These pixels were quantified and expressed per unit area.

Structure (SMILES) | gelatinolytic activity (inactive and active forms of MMP-9 and MMP-2) in gelatin zymography [1] | axial distribution of abnormal barrier permeability to HRP (segments rostral and caudal to the lesion) [2] | blood-spinal cord barrier permeability to HRP at the lesion epicenter ([2]; 100 mg/kg) | blood-spinal cord barrier permeability to HRP at the lesion epicenter ([2]; listed as GM 6001, 100 mg/kg) | abnormal barrier permeability to luciferase in the epicenter [3] | abnormal barrier permeability to luciferase in the epicenter ([3]; listed as GM 6001) | numbers of neutrophils within the lesion epicenter (neutrophils) | locomotor recovery (BBB Locomotor Rating Scale, 21 point scale) (spinal cord injured mice) | locomotor recovery (BBB Locomotor Rating Scale, 21 point scale) (spinal cord injured mice; listed as GM 6001) | area of residual white matter at the lesion epicenter (spinal cord white matter) | area of residual white matter at the lesion epicenter (spinal cord white matter; listed as GM 6001)
c1cnc2c(c1)ccc1cccnc12 [1,10 phenanthroline, 1,10-phenanthroline] | completely blocked the gelatinolytic activity; also recorded: completely blocks the inactive and active forms |  |  |  |  |  |  |  |  |  | 
CNC(=O)[C@H](Cc1c[nH]c2ccccc12)NC(=O)[C@@H](CC(=O)NO)CC(C)C [GM6001] |  | not observed | marked increase in permeability to HRP in the wild type mice as compared to | only light patches of HRP reaction product in the epicenter | significant reduction in barrier permeability | significantly attenuated | significant reduction in the numbers of neutrophils | greater locomotor | significant locomotor recovery as early as 3 days post injury and weekly thereafter | significantly greater preservation of white matter | significant preservation of white matter
